Results reported in patent US9631096B2, “Dye compositions, methods of preparation, conjugates thereof, and methods of use” (CORNELL UNIVERSITY, priority 2012, dated 2017).

Experiments:
[1] = Single-molecule FRET with donor and acceptor dyes on ribosomal proteins S13 and L1; format: physicochemical, E. coli; settings: ribosome S13/L1 labels, 532 nm excitation, same day and conditions, FIG. 12
Description: In this study, donor and acceptor fluorophores are attached to two ribosomal proteins (S13 small subunit; L1 large subunit, respectively).
Ribosomal protein S13 was PCR cloned from E. coli strain K12 genomic DNA into the pPROEX HTb vector with a TEV-protease-cleavable histidine (His)6 tag and a 12-residue peptide encoding the S6 epitope for the Sfp phosphopantetheinyl transferase reaction (amino acid sequence, [sequence]) fused at the N terminus (N-Sfp). {Yin, J., Lin, A. J., Golan, D. E. & Walsh, C. […] 1, 280-285 (2006)} After transformation of this plasmid into an E. coli ΔS13 knockout strain, cells were cultured and ribosomes were harvested as previously described. {Wang, L., Altman, R. B. & Blanchard, S. C. […]
Single-molecule FRET experiments were performed at room temperature in Tris-polymix with 5 mM Mg2+ buffer, as previously described {Wang, L., Altman, R. B. & Blanchard, S. C. […] The smFRET data were acquired by directly exciting the Cy3 fluorophore at 532 nm (LaserQuantum) while the Cy3 and Cy5 intensities were simultaneously recorded in Metamorph (Molecular Devices) with a 40-ms integration time. The data were analyzed in MATLAB (MathWorks) and plotted in Origin (OriginLab), as previously described. {Munro, J. B., Altman, R. B., O'Connor, N. & Blanchard, S. C.

[2] = Single-molecule TIRF fluorescence imaging of dye-labeled duplex DNA (photostability); format: physicochemical
Protocol: Each DNA strand was individually labeled with a single, NHS-activated “self-healing” fluorophore and hybridized to a complementary strand. Purified duplexes were used for single-molecule experiments.
All experiments were performed using a laboratory built, prism-based TIRE apparatus. Biotinylated DNA molecules were immobilized via a biotin-streptavidin interaction within microfluidic channels constructed on quartz slides. Fluorescence from surface-immobilized molecules, illuminated via the evanescent wave generated by total internal reflection of a 640 nm laser source, was collected using a water-immersion objective and imaged onto a EMCCD camera. […]
The photophysical properties of fluorophores were analyzed using automated software built in-house using Matlab. To extract kinetic parameters of blinking and photobleaching, the fluorescence traces were normalized to the mean fluorescence intensity of each dataset and idealized using the SKM algorithm and a 3-state model with one fluorescent (on) state, a transient dark state (blinking) and a permanent dark state (photobleaching). Time on (τon) was calculated by fitting the cumulative distribution to an exponential function.
By tracking the fluorescence of individual molecules over time, the intensity and duration of fluorescence, as well as the kinetics of blinking and photobleaching could be quantified. […]

[3] = cited from earlier work
[4] = Laser flash photolysis (time-resolved transient absorption) of Cy5 derivatives with benzophenone sensitizer; format: physicochemical; settings: for lifetime of the 700 nm transient: acetonitrile, BP 5 mM, Cy5 22 μM
Description: This experiment examined whether enhanced photostability of the Cy5 fluorophore, when covalently linked to protective agents (COT, NBA or Trolox) (Chart 1) can be specifically attributed to a triplet state quenching mechanism using laser flash photolysis (time-resolved transient absorption spectroscopy).
Because the formation of triplet states of Cy5 is inefficient (triplet quantum yield <0.003) upon direct excitation, a triplet sensitizer was employed to more efficiently populate the Cy5 triplet state (^3Cy5*) through an energy transfer mechanism (eq 1).
Deoxygenated acetonitrile solutions containing BP and Cy5 were irradiated with light pulses from a Nd-YAG laser at 355 nm (5 ns pulse width) to generate transient absorption kinetic traces across the visible spectrum. From these traces, transient absorption spectra at different times after the laser pulse were constructed (FIG. 3). Directly after the laser pulse the spectrum is dominated by the triplet absorption of BP, which is known to show a peak at 525 nm. […] Assignment of this new transient at 700 nm as the triplet state absorption of Cy5 was subsequently confirmed by performing quenching studies in the presence of a small amount of oxygen (0.45 mM; generated by bubbling the acetonitrile solution with a gas mixture of 5% O2 and 95% N2).
In addition to different protective agents (COT, NBA and Trolox), the length of the spacer between Cy5 and the protective agent was also varied. Laser flash photolysis experiments in argon-saturated acetonitrile solutions using BP as the sensitizer were performed on each of the Cy5 derivatives. […] The initial growth in transient absorption is caused by the energy transfer process from ^3BP* to the Cy5 chromophore analog in eq 1, which is then followed by the decay of the Cy5 triplet state. The concentrations of the Cy5 derivatives were optimized in order to ensure accurate triplet lifetime determination. […]

CCN1C(=CC=CC2=[N+](CCCCCC(=O)O)c3ccc(S(=O)(=O)O)cc3C2(C)C)C(C)(C)c2cc(S(=O)(=O)[O-])ccc21 [Cy3]
brightness and duration of donor and acceptor fluorescence / quality of FRET data [1]: short-lived and are noisy and relatively difficult to analyze

CCN1/C(=C/C=C/C=C/C2=[N+](CCCCCC(=O)O)c3ccc(S(=O)(=O)O)cc3C2(C)C)C(C)(C)c2cc(S(=O)(=O)[O-])ccc21 [Cy5]
time period of fluorescence before blinking or photobleaching (visual inspection of traces) ([2]; individual fluorescence traces, dye on double stranded DNA, 641 nm): shortest
Average number of photons (10^4 photons) detected before photobleaching or blinking ([2]; single-molecule measurements, dye on duplex DNA, TIRF, 641 nm illumination, deoxygenated solution): 2.1 ± 0.1 10^4 photons
quantum yield ([3]; fluorescence): approximately 0.3
triplet quantum yield ([3]; upon direct excitation): < 0.003
τtriplet (triplet lifetime) ([4]; deoxygenated acetonitrile, BP sensitizer, 355 nm pulse, triplet absorption at 700 nm): 63 ± 3 μs
lifetime of the 700 nm transient ([4]; in the absence of O2 (argon purged)): ~22 μs
lifetime of the 700 nm transient ([4]; in the presence of O2 (0.45 mM; 5% O2/95% N2)): 1.7 μs
brightness and duration of donor and acceptor fluorescence / quality of FRET data [1]: short-lived and are noisy and relatively difficult to analyze
